Measured values: patent US20240294595A1, “GLYCOPEPTIDES AND USES THEREOF” (Arizona Board of Regents on Behalf of the University of …, priority 2013, published 2024)
“Also recorded” adds a separate entry of the source.

Key:
[1] = tested on: 6-OHDA hemi-parkinsonian rat model; experiment: mild (25%) 6-OHDA hemi-parkinsonian rat model (study 1); format: in vivo
Description: The classical mild progressive 6-OHDA hemi-parkinsonian rat model was used to assess the neuroprotective potential of 2LS98Lac (FIGS. 9A,B). Briefly, the rats were given unilateral lesions by treatment with 6-OHDA. Then, the rats were challenged with a dopaminergic receptor agonist (amphetamine in our case) and assessed for their turning behavior (Kelly et al., 1975; Torres and Dunnet, 2007; DaCunha et al., 2008) The observed rotational behavior is likely due to the denervation of dopaminergic neurons and subsequent hypersensitivity of the dopaminergic receptors in the lesioned area of the brain. In the first experiment, mild lesions (25%) were induced (FIG. 9A) to simulate the early stages of PD, and amphetamine was used to induce […] rotations. Rats were treated with either vehicle or 2LS98Lac (15 mg/kg, i.p.) 6 h prior to lesioning and 24 h post-lesion. […] Following behavioral analysis, the number of tyrosine hydroxylase (TH)-positive neurons in the SNpc of both vehicle-treated and 2LS98Lac-treated animals was determined using immunohistochemical staining and unbiased stereology. […] Both behavioral and histological data obtained from these experiments indicate that 2LS98Lac successfully elicited neuroprotection.

[2] = tested on: 6-OHDA hemi-parkinsonian rat model; experiment: moderate (40%) 6-OHDA hemi-parkinsonian rat model (study 2); format: in vivo
Description: In a follow-up study, the neuroprotective potential of 2LS98Lac was also probed in rats with more severe (40%) 6-OHDA-induced lesions and three treatment-injections with 2LS98Lac (FIG. 9B).
Specifically, 6-OHDA did lead to reduction of % area IBA-1/cell (F3-24=4.463, p=0.0140; FIG. 9K), process length/cell (F3-24=5.925, p=0.0057; FIG. 9L), branches/cell (F3-24=5.845, p=0.0042; FIG. 9M), and endpoints/cell (F3-24=2.943, p=0.0286; FIG. 9N) on the lesioned side. Treatment with 2LS98Lac did lead to an increase of the parameters on the lesioned side back to levels on the intact side. […] Example images for the nigral IHC for TH and for IBA-1, as well as the semi-quantitative western analyses of striatal TH and beta-actin are presented in FIGS. 10A-D.

[3] = rat, serum
[4] = stability in mouse serum at 37° C. (FI-MSn); format: in vitro ADME; settings: mouse serum at 37° C.
Description: Chemical stability of the glycopeptides in vivo plays an important role in the deliverability of the drugs to the site(s) of action within the brain. It is also important to know what the chemical or metabolic instabilities are in order to inform the drug design process. […] Data were fitted using a single exponential decay model (R^2>0.71, in all cases).
The overall process was as follows: Flow-injection tandem mass spectrometry (FI-MS^n) was used to observe the degradation of the peptides and glycopeptides with a Thermo LCQ with electrospray ionization (ESI). The technique involved injection of a sample bolus of material in mouse serum via a six port valve with fluid flow delivered via a syringe pump, and subsequent electrospray ionization (ESI) followed by mass spectral analysis. Samples were diluted to a concentration of ˜5 μM of each PACAP analogue, and were incubated at 37° C. for times varying from 1 to 60 minutes. After samples had been incubated for the prescribed amount of time they were prepared for mass spectrometry analysis by withdrawing 10 microliters of solution and spiking with 1 microliter of a 10 μM solution of peptide internal standard (angiotensin II) in 50% acetic acid and subjecting them to a standard C18 zip tip desalting. These solutions, once eluted from the zip tip were diluted to 100 μL in 50:50 acetonitrile/water with 0.1% formic acid. Tandem mass spectrometry analysis (MS^3) was conducted to yield specific, quantitative signals proportional to the amount of PACAP analogue at each time point. This technique was also used with microdiasylate samples from a mouse after i.p. administration of PACAP1-27-S-G.

[5] = tested on: PC12 cells; experiment: PC12 cell morphology / neurite outgrowth; format: cell-based; settings: 100 nM
Experimental: PC12 cells are non-adherent cells, and in spite of using the poly-D-Lysine coated plates, the majority of the cells remained suspended. During the media exchange many of the cells were removed with the spent media. The remaining cells could be visually evaluated for qualitative morphological changes at the end of the treatment period, but meaningful cell quantification could not be done reliably using this approach.
FIGS. 5A-5D show PC12 Cell Morphology after Vehicle vs PACAP Treatment (100 nM). […] In all cases the process outgrowths on the treated cells were greater than 2× the cell body width
The PC12 cells were cultured in RPMI containing 5% heat inactivated fetal bovine serum and 10% horse serum in the presence of 100 units/mL penicillin and 100 microgram/mL streptomycin. The cells were plated on poly-D-Lysine coated 6-well tissue culture plates at a density of 150,000 cells per well in 2 mL media. After 48 hours at 37° C. in 5% CO2 atmosphere, media exchange was performed and plates were dosed, using the peptide diluent (water) for the control samples. […] Cell images of each treatment group were captured and compared to the control cells to screen for differentiation and cell body volume increases. Cells having neurite-like process outgrowth were noted and photographed. The neurite-like outgrowth was deemed positive if its length was at least two times the width of the cell body.

[6] = lesioned side, treatment vs vehicle
[7] = three treatment-injections, vs vehicle
[8] = treatment vs vehicle, listed as 2LS98lac

## 2LS98Lac: PACAP glycopeptide; 2LS98 = HSDGIFTDSYSRYRKQLAVKKYLAAVL-Ser-CONH2 (SEQ ID NO: 7), lactose (HSDGIFTDSYSRYRKQLAVKKYLAAVLS; not fully specified; lactose glycosylation, C-terminal amide) [Compound 2LS98Lac]
[1]; 15 mg/kg i.p. 6 h prior and 24 h post-lesion, vs vehicle
  cumulative amphetamine-induced contralateral rotations: significantly decreased; also recorded: reduces 6-OHDA-induced lesion damage
[1]; 15 mg/kg i.p., mild lesion
  TH-positive neurons in the SNpc, lesioned vs intact side: neuronal cell death was attenuated
[2]; lesioned side
  6-OHDA-induced change in microglia morphologic phenotype: fully reversed
[2]; [6]
  % area IBA-1/cell: significant increase
  branches/cell: significant increase
  endpoints/cell: trend toward increase
  process length/cell: significant increase
[2]; lesioned side, listed as 2LS98lac
  6-OHDA-induced change in microglia morphologic phenotype: rescues 6-OHDA induced morphological changes to microglia
[2]; moderate lesion
  nigral TH-cell count on the lesioned side: 9,244 cells
[2]; not significant (p=0.2208)
  mean increase of nigral TH-cell count on the lesioned side vs vehicle group: 850 cells
[2]; [7]
  amphetamine-induced rotations at 2 weeks post-lesion: did not see a difference; also recorded: does not reduce 6-OHDA-induced lesion damage
  amphetamine-induced rotations at 4 weeks post-lesion: did not see a difference; also recorded: does not reduce 6-OHDA-induced lesion damage
[2]; treatment vs vehicle
  striatal DA content: no significant difference
  striatal TH (western analysis): no significant difference
[2]; [8]
  striatal DA content: did not change
  striatal TH (western analysis): did not change

## CC[C@H](C)[C@H](NC(=O)CNC(=O)[C@H](CC(=O)O)NC(=O)[C@H](CO)NC(=O)[C@@H](N)Cc1c[nH]cn1)C(=O)N[C@@H](Cc1ccccc1)C(=O)N[C@H](C(=O)N[C@@H](CC(=O)O)C(=O)N[C@@H](CO)C(=O)N[C@@H](Cc1ccc(O)cc1)C(=O)N[C@@H](CO)C(=O)N[C@@H](CCCNC(=N)N)C(=O)N[C@@H](Cc1ccc(O)cc1)C(=O)N[C@@H](CCCNC(=N)N)C(=O)N[C@@H](CCCCN)C(=O)N[C@@H](CCC(N)=O)C(=O)N[C@@H](CC(C)C)C(=O)N[C@@H](C)C(=O)N[C@H](C(=O)N[C@@H](CCCCN)C(=O)N[C@@H](CCCCN)C(=O)N[C@@H](Cc1ccc(O)cc1)C(=O)N[C@@H](CC(C)C)C(=O)N[C@@H](C)C(=O)N[C@@H](C)C(=O)N[C@H](C(=O)N[C@@H](CC(C)C)C(=O)N[C@@H](CO[C@@H]1O[C@H](CO)[C@@H](O[C@@H]2O[C@H](CO)[C@H](O)[C@H](O)[C@H]2O)[C@H](O)[C@H]1O)C(N)=O)C(C)C)C(C)C)[C@@H](C)O [Compound 2LS80Lac]
[3]
  half-life: > 1 h

## PACAP1-27-S-L: the corresponding lactoside of PACAP1-27 (HSDGIFTDSYSRYRKQMAVKKYLAAVLS; not fully specified)
[4]
  degradation in mouse serum: degraded over 30 min
[5]
  cell body volumes: showed increases
